Earlier results on 4 compounds are cited in PMC10783014, “Structure-based virtual screening and in vitro validation of inhibitors of cyclic dinucleotide phosphodiesterases ENPP1 and CdnP” (Microbiology Spectrum, 2023).

The series concerns CdnP. Conditions: cited from earlier work.
Regarding `COc1ccc([C@]2(C#N)CC[C@@H](C(=O)O)CC2)cc1OC1CCCC1` [cilomilast], the CdnP inhibition result is given as “demonstrated CdnP inhibition”.
Regarding `O=C1CCc2cc(OCCCCc3nnnn3C3CCCCC3)ccc2N1` [cilostazol], the CdnP inhibition entry is “demonstrated CdnP inhibition”.
With `CCCc1nn(C)c2c(=O)[nH]c(-c3cc(S(=O)(=O)N4CCN(C)CC4)ccc3OCC)nc12` [sildenafil], the CdnP inhibition entry is reported as “demonstrated CdnP inhibition”.
Regarding `CN1CC(=O)N2[C@H](c3ccc4c(c3)OCO4)c3[nH]c4ccccc4c3C[C@@H]2C1=O` [tadalafil], the CdnP inhibition result is “demonstrated CdnP inhibition”.
